Test [1] deals with Cav2.2 (N-type calcium channel; α1B, α2δ and β3 subunits stably expressed in HEK293 cells). Description: Automated electrophysiology assay (QPatch-HT patch clamp). Type of test: cell-based. The procedure:
The Cav2.2 (α1B) subunit (GenBank accession no. AAO53230; supplied by Lipscombe's laboratory at Brown University) was subcloned into pcDNA3.1, whereas the α2δ (M86621) and β3 (M88751) subunits were subcloned into pBudCE4.1 vectors. Stable cell lines expressing all three subunits were generated according to the following procedure: 1) HEK293 cells were transfected with α2δ−1/β3 expression constructs resulting in a stable cell line expressing α2δ−1 and β3 subunits that were selected under 200 μg/mL of Zeocin; 2) a stable cell line expressing α2δ−1/β3 subunits in high quantity as evidenced in its Western blots was isolated from the colony and purified; 3) this cell line was further transfected with Cav2.2 expression constructs, from which cells were subsequently selected under 400 μg/mL G418 and 200 μg/mL Zeocin; 4) these cells were clonally isolated, expanded and screened by Western blot analysis for expressing all three subunits
Cultures of cells stably expressing Cav2.2 were maintained at 37° C. in low glucose-containing Dulbecco's Modified Eagle medium (low glucose) under a 5% CO2 atmosphere. The medium was supplemented with 10% fetal bovine serum, 2 mM L-glutamine, 100 IU/mL penicillin, […] streptomycin, 400 μg/mL G418 and 200 μg/mL Zeocin.
High-throughput automated patch clamp system experiments were carried out using instruments (QPatch-HT) available from Sophion Biosciences, Inc. North Brunswick, N.J. Cells were grown in T175 flasks to 50%-90% confluence were enzymatically treated with Deatchin (Genlantis, San Diego, Calif., U.S.A.), centrifuged, rinsed and resuspended in 293 SFM II media (Life Technologies, Grand Island, N.Y., U.S.A.) supplemented with 25 mM HEPES (Sigma-Aldrich, St. Louis, Mo., U.S.A.) to a concentration of 2−3×10^6 cells/mL. Cells were added to automated cell preparation station on the QPatch-HT (Sophion Biosciences, North Brunswick, N.J., U.S.A.) and following a 10- to 30-min recovery period with gentle stirring, the assay protocol was initiated. During the automated cell preparation, cells were collected, centrifuged and resuspended in an extracellular (EC) solution containing 132 mM NaCl, 1.8 mM CaCl2, 5.4 mM KCl, 0.8 mM MgCl2, 10 mM glucose, and 10 mM HEPES (pH=7.4), adjusted with sucrose to 315 m0sm. The QPlate was primed with an intracellular solution containing 135 CsCl, 10 mM EGTA, 4 MgATP, 0.3 NaGTP, and 20 mM HEPES (pH=7.2), adjusted to approximately 290 m0sm with deionized water and the EC solution. Cells were added to the prepared QPlate wells by robotic pipettes of the QPatch-HT.
For cells determined to be in stable whole-cell patch clamp, the EC solution was replaced with a barium (Ba)/triethylammonium (TEA) solution containing 140 mM TEA-Cl, 10 mM BaCl2, 0.8 mM MgCl2, 10 mM glucose, and 10 mM HEPES (pH=7.4). High (40 mM) BaCl2 concentrations were made with adjustments of TEA-Cl (90 mM) to maintain the osmolarity. From a resting potential of −80 mV, a train of depolarizing pulses (15 pulses at 5 Hz, +20 mV) was delivered to the cell once every 30 sec for eight trains (4 min total), and the resulting currents were measured during a control period (no compound). This protocol was repeated for each subsequent addition of control buffer with or without compound (three periods total, each with four trains). The current generated in the 1st and 15th pulses of the last train of each period in the presence of each drug concentration was normalized to the current generated during the control period at the respective pulses (representing low- and high frequency stimulation, respectively). Data from both the second and third drug application period were analyzed for each cell. A final addition of Ba/TEA solution containing 60-100 uM CdCl2 was made to block all N-type current and “zero” the currents for each cell. A buffer/compound additions were made using a “spitting” feature of the QPatch-HT, which added three repretitions of 5 μL solution at the beginning of each recording period.
On the technique in general: Patch clamp records ionic current or voltage across a cell membrane.

Test [2] deals with α1B (Cav2.2), β3 and α2δ subunits of the N-type calcium channel (stable HEK cell line) (Rattus norvegicus, UniProt Q02294). As to the kind of experiment: Calcium-dye indicator assay (FDSS, KCl depolarization). Type of test: cell-based. The following applies: calcium mobilization response to 50 mM KCl; six-point concentration-response. The procedure: A stable cell line (HEK parent) co-expressing the α1B (Cav2.2), β3 and α2δ subunits of the N-type calcium channel subunits was used. These cells were routinely grown as monolayers in low glucose-containing Dulbecco's Modified Eagle Medium supplemented with 10% FBS, 2 mM L-glutamine, 100 I.U./mL penicillin, 100 μg/mL streptomycin, 400 μg/mL G418 and 200 μg/mL Zeocin (split ratio=1:5). Cells were maintained in 5% CO2 at 37° C. Compounds of Formula (I) were prepared as 10 mM stocks in DMSO from neat compound, if available. Otherwise, the 5 or 10 mM DMSO stock solutions provided in-house were used.
Calcium mobilization responses to KCl depolarization were evaluated by measuring the intensity of calcium-mediated fluorescent signal in the presence of BD Calcium Assay Dye (BD Biosciences, Franklin Lakes, N.J., U.S.A.), utilizing a Functional Drug Screening System (FDSS) by Hamamatsu Corporation (Bridgewater, N.J., U.S.A.).
Twenty-four hours prior to assay, cells were seeded in clear-base poly-D-lysine coated 384-well plates (BD Biosciences) at a density of 5,000 cells per well in culture medium and grown overnight in 5% CO2 at 37° C. On the day of assay growth media were removed and cells were loaded with BD calcium assay dye (BD Biosciences) for 35 min at 37° C. under 5% CO2 and then for 25 min at room temperature. Utilizing the FDSS, cells were exposed to representative compounds of Formula (I) at varying concentrations and intracellular calcium was measured for 5 min prior to the addition of 50 mM KCl for an additional 3 min of measurement.
Maximal fluorescence intensity (FI) achieved upon addition of 50 mM KCl was exported from the FDSS software and further analyzed using GraphPad Prism 4 (Graph Pad Software Inc., CA, U.S.A.). Data were normalized to the maximum average counts from quadruplicate wells for each condition in the presence of 50 mM KCl and to the minimum average counts in the presence of buffer. Theoretical curves were generated using nonlinear regression curve-fitting analysis of either sigmoidal concentration-response or sigmoidal concentration-response (variable slope), and the IC50 values with the best-fit dose curve determined by GraphPad Prism were reported.
A general note: A change in cytosolic calcium serves as a functional read-out for many receptors and channels.

Setting [3] is: 0.1 μM, high frequency stimulation (15th pulse of 5 Hz train).
[4] abbreviates: 0.1 μM, low frequency stimulation (1st pulse of train).

Structures are written as SMILES.

For `COc1ccccc1-n1nc(C2CC(C)(C)SC(C)(C)C2)cc1-c1ccc(Cl)cc1` [Compound 58, 5-(4-Chloro-phenyl)-1-(2-methoxy-phenyl)-3-(2,2,6,6-tetramethyl-tetrahydro-thiopyran-4-yl)-1H-pyrazole], in test [1] (setting [3]), the “QPatch % Inhibition, High Freq” value came out at 26%. Further, the “QPatch % Inhibition, Low Freq” value in test [1] (setting [4]) was 19%.

Consider `COc1ccccc1-n1nc(C2CC(C)(C)OC(C)(C)C2)cc1-c1ccnc(C)c1` [Compound 33, 4-[1-(2-Methoxyphenyl)-3-(2,2,6,6-tetramethyltetrahydro-2H-pyran-4-yl)-1H-pyrazol-5-yl]-2-methylpyridine], for which the IC50 (as a rule, the concentration at which inhibition is half-maximal) in test [2] was found to be 82 nM.

With `COc1ccccc1-n1nc(C2=CC(C)(C)OC2(C)C)cc1-c1ccc(Cl)cc1` [Compound 97, 5-(4-Chlorophenyl)-1-(2-methoxyphenyl)-3-(2,2,5,5-tetramethyl-2,5-dihydrofuran-3-yl)-1H-pyrazole], the IC50 in test [2] came out at 13 nM.

As for `COc1cncc(-c2cc(C3CC(C)(C)OC(C)(C)C3)nn2-c2ccccc2OC)c1` [Compound 34, 3-Methoxy-5-[1-(2-methoxyphenyl)-3-(2,2,6,6-tetramethyltetrahydro-2H-pyran-4-yl)-1H-pyrazol-5-yl]-pyridine], the IC50 in test [2] was 120 nM.

`COc1ccccc1-n1nc(C2CC(C)(C)OC(C)(C)C2)cc1-c1ccc(OCCN(C)C)cc1` [Compound 82, 2-{4-[1-(2-Methoxyphenyl)-3-(2,2,6,6-tetramethyltetrahydro-2H-pyran-4-yl)-1H-pyrazol-5-yl]phenoxy}-N,N-dimethylethanamine]: the IC50 in test [2] worked out at 770 nM.

Consider `COc1ccccc1-n1nc(C2CC(C)(C)OC(C)(C)C2)cc1-c1ccc2c(ccn2C)c1` [Compound 21, 5-[1-(2-Methoxyphenyl)-3-(2,2,6,6-tetramethyltetrahydro-2H-pyran-4-yl)-1H-pyrazol-5-yl]-1-methyl-1H-indole], for which the IC50 in test [2] was 5.7 nM.

Consider `COc1ccccc1-n1nc(C2CC(C)(C)OC(C)(C)C2)cc1-c1cccnc1` [Compound 45, 3-[1-(2-Methoxyphenyl)-3-(2,2,6,6-tetramethyltetrahydro-2H-pyran-4-yl)-1H-pyrazol-5-yl]-pyridine], for which the IC50 in test [2] was 71 nM.

Regarding `COc1ccccc1-n1nc(C2CC(C)(C)OC(C)(C)C2)cc1-c1ccc2[nH]ccc2c1` [Compound 42, 5-[1-(2-Methoxyphenyl)-3-(2,2,6,6-tetramethyltetrahydro-2H-pyran-4-yl)-1H-pyrazol-5-yl]-1H-indole], the IC50 in test [2] is 55 nM.

Turning to `CCN(CC)C(=O)c1ccc(-c2cc(C3CC(C)(C)OC(C)(C)C3)nn2-c2ccccc2OC)cc1` [Compound 40, N,N-Diethyl-4-[1-(2-methoxyphenyl)-3-(2,2,6,6-tetramethyltetrahydro-2H-pyran-4-yl)-1H-pyrazol-5-yl]-benzamide], the IC50 in test [2] worked out at 270 nM.

`COc1ccccc1-n1nc(C2CC(C)(C)OC(C)(C)C2)cc1-c1ccccc1NC(C)=O` [Compound 36, N-{2-[1-(2-Methoxyphenyl)-3-(2,2,6,6-tetramethyltetrahydro-2H-pyran-4-yl)-1H-pyrazol-5-yl]-phenyl}-acetamide]: in test [2], the IC50 is 143 nM.

Take `CC(C)Oc1ccccc1-n1nc(C2CC(C)(C)OC(C)(C)C2)cc1-c1ccc(Cl)cc1` [Compound 7, 5-(4-Chlorophenyl)-1-[2-(1-methylethoxy)phenyl]-3-(2,2,6,6-tetramethyltetrahydro-2H-pyran-4-yl)-1H-pyrazole]: the IC50 in test [2] amounted to 1.2 nM.

With `COc1ccccc1-n1nc(C2CC(C)(C)OC(C)(C)C2)cc1-c1ccc(OCCn2ccnc2)cc1` [Compound 81, 5-{4-[2-(1H-Imidazol-1-yl)ethoxy]phenyl}-1-(2-methoxyphenyl)-3-(2,2,6,6-tetramethyltetrahydro-2H-pyran-4-yl)-1H-pyrazole], in test [2], the IC50 came to 400 nM.

As to `COc1ccccc1-n1nc(C2CC(C)(C)S(=O)(=O)C(C)(C)C2)cc1-c1ccc(Cl)cc1` [Compound 59, 5-(4-Chlorophenyl)-1-(2-methoxyphenyl)-3-(2,2,6,6-tetramethyl-1,1-dioxidotetrahydro-2H-thiopyran-4-yl)-1H-pyrazole], in test [1] (setting [3]), the “QPatch % Inhibition, High Freq” value is 54%. In addition, in test [1] (setting [4]), the “QPatch % Inhibition, Low Freq” value was 54%.

With `CC1(C)CC(c2cc(-c3ccc(Cl)cc3)n(-c3ccncc3)n2)CC(C)(C)O1` [Compound 51, 4-[5-(4-Chlorophenyl)-3-(2,2,6,6-tetramethyltetrahydro-2H-pyran-4-yl)-1H-pyrazol-1-yl]-pyridine], in test [1] (0.1 µM), the “QPatch % Inhibition, High Freq” value was found to be 22% and the “QPatch % Inhibition, Low Freq” value is on record as −17%.

As for `COc1ccccc1-n1nc(C2CC(C)(C)OC(C)(C)C2)cc1-c1ccc([S+](C)[O-])cc1` (centres unmarked) [Compound 47, 5-(4-Methanesulfinyl-phenyl)-1-(2-methoxy-phenyl)-3-(2,2,6,6-tetramethyl-tetrahydro-pyran-4-yl)-1H-pyrazole], the “QPatch % Inhibition, High Freq” value in test [1] (setting [3]) turned out to be 28%. Besides, the “QPatch % Inhibition, Low Freq” value in test [1] (setting [4]) is 25%.

On to `COc1ccccc1-n1nc(C2CC(C)(C)OC(C)(C)C2)cc1-c1ccnc(Cl)c1` [Compound 25, 2-Chloro-4-[1-(2-methoxyphenyl)-3-(2,2,6,6-tetramethyltetrahydro-2H-pyran-4-yl)-1H-pyrazol-5-yl]pyridine], for which the “QPatch % Inhibition, High Freq” value in test [1] (setting [3]) was found to be 29%. The “QPatch % Inhibition, Low Freq” value in test [1] (setting [4]) was 14%.

For `CC1(C)CC(c2cc(-c3ccc(Cl)cc3)n(-c3ccccn3)n2)CC(C)(C)O1` [Compound 50, 2-[5-(4-Chloro-phenyl)-3-(2,2,6,6-tetramethyl-tetrahydro-pyran-4-yl)-pyrazol-1-yl]-pyridine], in test [1] (0.1 µM), the “QPatch % Inhibition, High Freq” value came to 1% and the “QPatch % Inhibition, Low Freq” value is reported as −37%.

Source of the values: patent US8901314B2, “Substituted pyrazoles as N-type calcium channel blockers” (Janssen Pharmaceutica NV, priority 2012, dated 2014).
